Series [1] deals with T1, ATP-dependent translocase ABCB1 (Homo sapiens, UniProt P08183). Nature of the series: Reversal of P-gp-mediated multidrug resistance in human KBV cells assessed as potentiation of paclitaxel-induced cytotoxicity by measuring cell survival at 5 uM after 72 hrs by MTT assay (reference value: 100.58 +/- 7.78%). Format: cell-based. A general note: Tetrazolium dyes change colour on reduction, which living cells bring about.

Series [2] is described as follows: Cytotoxicity against human KBV cells assessed as cell survival at 5 uM after 72 hrs by MTT assay relative to control. The format is cell-based. The following applies: read-out: Survival.
Series [3] deals with T1, ATP-dependent translocase ABCB1. The series can be described thus: Reversal of P-gp-mediated multidrug resistance in human KBV cells assessed as potentiation of paclitaxel-induced cell cycle arrest by measuring accumulation at G2/M phase at 5 to 10 uM after 24 hrs by RNase/propidium iodide staining based flow cytometry. On the technique in general: A flow cytometer gives signals particle by particle.

The target is the same in series [4]. Nature of the series: Reversal of P-gp-mediated multidrug resistance in human KBV cells assessed as potentiation of paclitaxel-induced apoptosis after 24 hrs by RNase/propidium iodide staining based flow cytometry. Format: cell-based.
For series [5] the target is unchanged. Nature of the series: Inhibition of P-gp-mediated Rh-123 efflux in human KBV cells assessed as Rh-123 accumulation at 10 uM preincubated for 2 hrs followed by Rh-123 addition measured after 30 mins by flow cytometry. The format is cell-based. The following applies: 0.5 h.
Series [6] shares this target. The series can be described thus: Inhibition of P-gp-mediated Flutax1 efflux in human KBV cells assessed as Flutax1 accumulation at 2 to 10 uM preincubated for 3 hrs followed by Flutax1 addition measured after 1 hr by flow cytometry. The format is cell-based.
The next series is filed under the species Homo sapiens. The series can be described thus: Downregulation of P-gp protein expression in human KBV cells at 5 to 10 uM after 24 hrs by western blot analysis. Format: functional, cell-based.
In series [7] the target is T1, ATP-dependent translocase ABCB1. Nature of the series: Stimulation of P-gp ATPase activity (unknown origin) assessed as increase in ATP consumption at 0.5 to 1 mM preincubated for 5 mins followed by Mg-ATP addition by P-gp-Glo luminescence assay.

The values below come from ChEMBL document CHEMBL4359919, “Discovery and synthesis of 3- and 21-substituted fusidic acid derivatives as reversal agents of P-glycoprotein-mediated multidrug resistance” (Eur J Med Chem, 2019).

The source made the active and inactive calls. No cut-off for these calls is given here.

T1 sequence (P08183 whole entry): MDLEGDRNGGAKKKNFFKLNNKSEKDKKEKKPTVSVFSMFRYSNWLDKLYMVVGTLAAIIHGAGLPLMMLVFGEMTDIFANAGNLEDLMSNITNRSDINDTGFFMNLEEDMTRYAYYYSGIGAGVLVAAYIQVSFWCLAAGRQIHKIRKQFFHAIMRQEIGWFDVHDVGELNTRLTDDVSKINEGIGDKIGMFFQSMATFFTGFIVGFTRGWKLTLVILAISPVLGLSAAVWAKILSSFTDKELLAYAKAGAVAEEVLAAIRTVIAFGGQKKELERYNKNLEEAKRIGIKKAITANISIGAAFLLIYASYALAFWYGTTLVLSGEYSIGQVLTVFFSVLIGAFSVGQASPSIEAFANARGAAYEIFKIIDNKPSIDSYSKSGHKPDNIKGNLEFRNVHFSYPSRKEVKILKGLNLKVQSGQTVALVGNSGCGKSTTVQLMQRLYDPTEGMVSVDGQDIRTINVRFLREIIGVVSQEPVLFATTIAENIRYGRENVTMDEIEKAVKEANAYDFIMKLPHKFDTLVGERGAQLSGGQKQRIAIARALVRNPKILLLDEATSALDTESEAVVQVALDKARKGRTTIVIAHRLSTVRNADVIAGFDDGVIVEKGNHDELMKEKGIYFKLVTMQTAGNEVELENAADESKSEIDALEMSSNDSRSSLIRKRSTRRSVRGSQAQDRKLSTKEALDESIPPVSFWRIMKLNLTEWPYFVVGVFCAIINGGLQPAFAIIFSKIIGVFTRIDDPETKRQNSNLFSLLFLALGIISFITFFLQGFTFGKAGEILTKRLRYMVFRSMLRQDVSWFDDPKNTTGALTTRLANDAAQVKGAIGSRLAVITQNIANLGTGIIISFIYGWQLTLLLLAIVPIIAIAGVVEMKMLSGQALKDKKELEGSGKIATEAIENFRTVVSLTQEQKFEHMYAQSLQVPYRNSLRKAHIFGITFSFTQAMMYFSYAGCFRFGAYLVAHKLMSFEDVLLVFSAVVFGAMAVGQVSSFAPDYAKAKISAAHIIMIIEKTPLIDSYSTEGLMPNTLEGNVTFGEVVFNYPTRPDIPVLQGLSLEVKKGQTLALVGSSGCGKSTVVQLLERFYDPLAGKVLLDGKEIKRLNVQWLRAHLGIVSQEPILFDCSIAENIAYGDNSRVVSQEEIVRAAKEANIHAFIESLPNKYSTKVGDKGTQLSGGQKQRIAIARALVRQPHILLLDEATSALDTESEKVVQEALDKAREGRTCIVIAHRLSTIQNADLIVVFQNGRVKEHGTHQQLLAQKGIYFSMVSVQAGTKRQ

With `CC(=O)O[C@H]1C[C@@]2(C)[C@@H](CC(=O)[C@H]3[C@@]4(C)CC[C@@H](OC(=O)CCCCO[N+](=O)[O-])[C@@H](C)[C@@H]4CC[C@@]32C)/C1=C(\CCC=C(C)C)C(=O)OCc1ccccc1`, the Survival in series [1] is given as 20.75%. Also, in series [2], the viability at 72 h, 5 µM is 112%.

For the molecule `CC(=O)O[C@H]1C[C@@]2(C)[C@@H](C[C@@H](O)[C@H]3[C@@]4(C)CC[C@@H](O)[C@@H](C)[C@@H]4CC[C@@]32C)/C1=C(\CCC=C(C)C)C(=O)Oc1ccc(CCO[N+](=O)[O-])cc1`, the Survival in series [1] came out at 45.82%. The viability at 72 h, 5 µM in series [2] came out at 83.7%.

For `CC(=O)O[C@H]1C[C@@]2(C)[C@@H](C[C@@H](O)[C@H]3[C@@]4(C)CC[C@@H](OC(=O)CCC(=O)Oc5ccc(CCO[N+](=O)[O-])cc5)[C@@H](C)[C@@H]4CC[C@@]32C)/C1=C(\CCC=C(C)C)C(=O)OCc1ccccc1`, the Survival in series [1] amounted to 99.95%. Besides, the viability at 72 h, 5 µM in series [2] came to 114%.

Regarding `CC(=O)O[C@H]1C[C@@]2(C)[C@@H](C[C@@H](O)[C@H]3[C@@]4(C)CC[C@@H](OC(=O)c5ccccc5C(=O)Nc5ccc(N)cc5)[C@@H](C)[C@@H]4CC[C@@]32C)/C1=C(\CCC=C(C)C)C(=O)OCc1ccccc1`, in series [1], the Survival came to 23.58%. In series [2], the viability at 72 h, 5 µM worked out at 118%.

Consider `CC(=O)O[C@H]1C[C@@]2(C)[C@@H](C[C@@H](O)[C@H]3[C@@]4(C)CC[C@@H](OC(=O)CCCCO[N+](=O)[O-])[C@@H](C)[C@@H]4CC[C@@]32C)/C1=C(\CCC=C(C)C)C(=O)OCc1ccccc1`, for which the Survival in series [1] is listed as 96.92%. For the same molecule, the viability at 72 h, 5 µM in series [2] came to 107%.

Regarding `CC(=O)O[C@H]1C[C@@]2(C)[C@@H](C[C@@H](O)[C@H]3[C@@]4(C)CC[C@@H](OC(=O)c5ccccc5C(=O)N5CCCCC5)[C@@H](C)[C@@H]4CC[C@@]32C)/C1=C(\CCC=C(C)C)C(=O)OCc1ccccc1`, in series [1], the Survival was 36.37%. Moreover, the viability at 72 h, 5 µM in series [2] is 110%.

As for `CC(=O)O[C@H]1C[C@@]2(C)[C@@H](C[C@@H](O)[C@H]3[C@@]4(C)CC[C@@H](OC(=O)c5ccccc5C(=O)OCCc5ccc(OCCO[N+](=O)[O-])cc5)[C@@H](C)[C@@H]4CC[C@@]32C)/C1=C(\CCC=C(C)C)C(=O)OCc1ccccc1`, in series [1], the Survival worked out at 90.45%. Also, in series [2], the viability at 72 h, 5 µM was 85.9%.

With `CC(=O)O[C@H]1C[C@@]2(C)[C@@H](C[C@@H](O)[C@H]3[C@@]4(C)CC[C@@H](OC(=O)c5ccccc5C(=O)Nc5cccc(N)c5)[C@@H](C)[C@@H]4CC[C@@]32C)/C1=C(\CCC=C(C)C)C(=O)OCc1ccccc1`, the Survival in series [1] came out at 29.28%. Moreover, the viability at 72 h, 5 µM in series [2] came to 95.8%.

Take `CCN1CCN(C(=O)CCC(=O)O[C@@H]2CC[C@@]3(C)[C@@H](CC[C@@]4(C)[C@H]3[C@H](O)C[C@H]3/C(=C(\CCC=C(C)C)C(=O)OCc5ccccc5)[C@@H](OC(C)=O)C[C@@]34C)[C@@H]2C)CC1`: the Survival in series [1] is on record as 34.43%. For the same molecule, the viability at 72 h, 5 µM in series [2] is 99.8%.

Turning to `CC(=O)O[C@H]1C[C@@]2(C)[C@@H](C[C@@H](O)[C@H]3[C@@]4(C)CC[C@@H](OC(=O)c5ccccc5C(=O)Oc5ccc(CCO[N+](=O)[O-])cc5)[C@@H](C)[C@@H]4CC[C@@]32C)/C1=C(\CCC=C(C)C)C(=O)OCc1ccccc1`, the Survival in series [1] turned out to be 75.04%. Moreover, in series [2], the viability at 72 h, 5 µM amounted to 87.5%.

For `CC(=O)O[C@H]1C[C@@]2(C)[C@@H](C[C@@H](O)[C@H]3[C@@]4(C)CC[C@@H](OC(=O)CCC(=O)Nc5cccc(N)c5)[C@@H](C)[C@@H]4CC[C@@]32C)/C1=C(\CCC=C(C)C)C(=O)OCc1ccccc1`, the Survival in series [1] came to 24.8%. For the same molecule, in series [2], the viability at 72 h, 5 µM was 135%.

For the molecule `CCN1CCN(C(=O)c2ccccc2C(=O)O[C@@H]2CC[C@@]3(C)[C@@H](CC[C@@]4(C)[C@H]3[C@H](O)C[C@H]3/C(=C(\CCC=C(C)C)C(=O)OCc5ccccc5)[C@@H](OC(C)=O)C[C@@]34C)[C@@H]2C)CC1`, in series [1], the Survival was 20.76%. In addition, the viability at 72 h, 5 µM in series [2] was 27.3%.

For the molecule `CC(=O)O[C@H]1C[C@@]2(C)[C@@H](CC(=O)[C@H]3[C@@]4(C)CCC(=O)[C@@H](C)[C@@H]4CC[C@@]32C)/C1=C(\CCC=C(C)C)C(=O)OCc1ccccc1`, in series [1], the Survival was 27.6%. Also, the viability at 72 h, 5 µM in series [2] was 96.6%.

Turning to `CC(=O)O[C@H]1C[C@@]2(C)[C@@H](C[C@@H](O)[C@H]3[C@@]4(C)CC[C@@H](OC(=O)CCC(=O)N5CCN(C)CC5)[C@@H](C)[C@@H]4CC[C@@]32C)/C1=C(\CCC=C(C)C)C(=O)OCc1ccccc1`, in series [1], the Survival is 33.67%. Besides, in series [2], the viability at 72 h, 5 µM stood at 30.1%.

Take `CC(=O)O[C@H]1C[C@@]2(C)[C@@H](CC(=O)[C@H]3[C@@]4(C)CC[C@@H](OC(=O)CCCCCO[N+](=O)[O-])[C@@H](C)[C@@H]4CC[C@@]32C)/C1=C(\CCC=C(C)C)C(=O)OCc1ccccc1`: in series [1], the Survival is 62.17%. Also, the viability at 72 h, 5 µM in series [2] was 115%.

As to `CC(=O)O[C@H]1C[C@@]2(C)[C@@H](C[C@@H](O)[C@H]3[C@@]4(C)CC[C@@H](OC(=O)CCC(=O)OCCc5ccc(OCCO[N+](=O)[O-])cc5)[C@@H](C)[C@@H]4CC[C@@]32C)/C1=C(\CCC=C(C)C)C(=O)OCc1ccccc1`, the Survival in series [1] is recorded as 101.31%. The viability at 72 h, 5 µM in series [2] turned out to be 110%.

Consider `CC(=O)O[C@H]1C[C@@]2(C)[C@@H](C[C@@H](O)[C@H]3[C@@]4(C)CC[C@@H](OC(=O)c5ccccc5C(=O)N5CCN(C)CC5)[C@@H](C)[C@@H]4CC[C@@]32C)/C1=C(\CCC=C(C)C)C(=O)OCc1ccccc1`, for which the Survival in series [1] worked out at 69.5%. Besides, in series [2], the viability at 72 h, 5 µM was determined as 100%.

Take `CC(=O)O[C@H]1C[C@@]2(C)[C@@H](C[C@@H](O)[C@H]3[C@@]4(C)CC[C@@H](OC(=O)CCCCCO[N+](=O)[O-])[C@@H](C)[C@@H]4CC[C@@]32C)/C1=C(\CCC=C(C)C)C(=O)OCc1ccccc1`: the Survival in series [1] is listed as 20.79%. Besides, in series [2], the viability at 72 h, 5 µM stood at 94.1%.

Regarding `CC(=O)O[C@H]1C[C@@]2(C)[C@@H](C[C@@H](O)[C@H]3[C@@]4(C)CC[C@@H](OC(=O)CCC(=O)N5CCOCC5)[C@@H](C)[C@@H]4CC[C@@]32C)/C1=C(\CCC=C(C)C)C(=O)OCc1ccccc1`, the Survival in series [1] is given as 31.93%. In series [2], the viability at 72 h, 5 µM was found to be 20.5%.

`CC(=O)O[C@H]1C[C@@]2(C)[C@@H](C[C@@H](O)[C@H]3[C@@]4(C)CC[C@@H](OC(=O)CCC(=O)N5CCCCC5)[C@@H](C)[C@@H]4CC[C@@]32C)/C1=C(\CCC=C(C)C)C(=O)OCc1ccccc1`: the Survival in series [1] is on record as 35.31%. Besides, the viability at 72 h, 5 µM in series [2] amounted to 122%.

Turning to `CC(=O)O[C@H]1C[C@@]2(C)[C@@H](C[C@@H](O)[C@H]3[C@@]4(C)CC[C@@H](OC(=O)c5ccccc5C(=O)N5CCOCC5)[C@@H](C)[C@@H]4CC[C@@]32C)/C1=C(\CCC=C(C)C)C(=O)OCc1ccccc1`, the Survival in series [1] amounted to 37.96%. Besides, the viability at 72 h, 5 µM in series [2] is 76%.

Consider `CC(=O)O[C@H]1C[C@@]2(C)[C@@H](C[C@@H](O)[C@H]3[C@@]4(C)CC[C@@H](OC(=O)CCC(=O)Nc5ccc(N)cc5)[C@@H](C)[C@@H]4CC[C@@]32C)/C1=C(\CCC=C(C)C)C(=O)OCc1ccccc1`, for which, in series [1], the Survival came out at 22.26%. Further, in series [2], the viability at 72 h, 5 µM amounted to 136%.

On to `COc1ccc(CCN(C)CCCC(C#N)(c2ccc(OC)c(OC)c2)C(C)C)cc1OC` (stereo not given) [VERAPAMIL], for which, in series [1], the Survival stood at 23.05%.

On to `CC(=O)O[C@H]1C[C@@]2(C)[C@@H](C[C@@H](O)[C@H]3[C@@]4(C)CC[C@@H](O)[C@@H](C)[C@@H]4CC[C@@]32C)/C1=C(\CCC=C(C)C)C(=O)OCc1ccccc1`, for which the outcome in series [3], in series [4] and in series [7] was Active. Also, the Survival in series [1] is listed as 18.6%. In addition, the viability at 72 h, 5 µM in series [2] was found to be 92%. Besides, the “inhibition (INH)” value in series [5] and in series [6] was “Active” in each case. In the series listed under Homo sapiens, the result was inactive.

For `CC(=O)O[C@H]1C[C@@]2(C)[C@@H](C[C@@H](O)[C@H]3[C@@]4(C)CC[C@@H](O)[C@@H](C)[C@@H]4CC[C@@]32C)/C1=C(\CCC=C(C)C)C(=O)O` [FUSIDIC ACID], the Survival in series [1] is 87.77%. For the same molecule, the viability at 72 h, 5 µM in series [2] stood at 84.7%.
